Residue numbers refer to the chain shown, from its start.

For data set [1], the target named is T1, SULT2A8 (Mus musculus, UniProt Q8BGL3).
T1 construct: truncated, residues 4-282 (first three residues removed), N-terminal GST tag cleaved with PreScission protease (pGEX-6P-3); E. coli BL21(DE3), purified from inclusion bodies; homodimer in crystal
T1 sequence (Q8BGL3 4-282): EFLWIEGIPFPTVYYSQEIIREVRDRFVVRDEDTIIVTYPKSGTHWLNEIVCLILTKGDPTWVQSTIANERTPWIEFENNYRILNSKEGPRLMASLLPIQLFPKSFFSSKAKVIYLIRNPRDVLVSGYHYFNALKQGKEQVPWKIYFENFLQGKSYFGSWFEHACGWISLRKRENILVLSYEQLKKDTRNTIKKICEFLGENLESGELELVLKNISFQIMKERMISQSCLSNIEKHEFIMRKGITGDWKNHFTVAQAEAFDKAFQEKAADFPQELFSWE
In words: thermal shift assay (Thermofluor). As to conditions: 20 mM Hepes pH 8.0, 150 mM NaCl, 4 mM DTT, ligand 250 mM [sic]. The data set is classed as binding. For orientation: In DSF a fluorescence change marks the thermal transition of the protein.

The target in data set [2] is T2, SULT2A8 (Mus musculus, UniProt Q8BGL3, H48T).
T2 construct: truncated, residues 4-282 (first three residues removed), N-terminal GST tag cleaved with PreScission protease (pGEX-6P-3); E. coli BL21(DE3), purified from inclusion bodies; homodimer in crystal
T2 sequence (Q8BGL3 4-282 H48T): T1 sequence (Q8BGL3 4-282) with H45T
Description: thermal shift assay (Thermofluor). Format: binding. The note with it: 20 mM Hepes pH 8.0, 150 mM NaCl, 4 mM DTT; ligand 250 mM [sic].

Data set [3] addresses T3, SULT2A8 (Mus musculus, UniProt Q8BGL3, L99V).
T3 construct: truncated, residues 4-282 (first three residues removed), N-terminal GST tag cleaved with PreScission protease (pGEX-6P-3); E. coli BL21(DE3), purified from inclusion bodies; homodimer in crystal
T3 sequence (Q8BGL3 4-282 L99V): T1 sequence (Q8BGL3 4-282) with L96V
In words: thermal shift assay (Thermofluor). The data set is classed as binding. As to conditions: 20 mM Hepes pH 8.0, 150 mM NaCl, 4 mM DTT; ligand 250 mM [sic].

Data set [4] addresses T4, SULT2A8 (Mus musculus, UniProt Q8BGL3, N72W).
T4 construct: truncated, residues 4-282 (first three residues removed), N-terminal GST tag cleaved with PreScission protease (pGEX-6P-3); E. coli BL21(DE3), purified from inclusion bodies; homodimer in crystal
T4 sequence (Q8BGL3 4-282 N72W): T1 sequence (Q8BGL3 4-282) with N69W
Description: thermal shift assay (Thermofluor). As to conditions: 20 mM Hepes pH 8.0, 150 mM NaCl, 4 mM DTT; ligand 250 mM [sic]. The data set is classed as binding.

Data set [5] concerns the target T1, SULT2A8. In words: X-ray crystal structure. The data set is classed as binding. The note with it: pH 5.1.
Data set [6] deals with T5, SULT2A8 (Mus musculus, UniProt Q8BGL3, L99T).
T5 construct: truncated, residues 4-282 (first three residues removed), N-terminal GST tag cleaved with PreScission protease (pGEX-6P-3); E. coli BL21(DE3), purified from inclusion bodies; homodimer in crystal
T5 sequence (Q8BGL3 4-282 L99T): T1 sequence (Q8BGL3 4-282) with L96T
In words: thermal shift assay (Thermofluor). Format: binding. The note with it: 20 mM Hepes pH 8.0, 150 mM NaCl, 4 mM DTT; ligand 250 mM [sic].

Data set [7] addresses T1, SULT2A8. Description: HPLC of PAP generated. Format: biochemical. The note with it: 50 μM PAPS, 100 μM bile acid, 2.5 mM MgCl2, pH 5.5 or 7.5, 37°C.
Data set [8] deals with the molecule itself. In words: crystal structure; SULT2A8 (4-282) cocrystallised with PAP and CA, pH 5.1, 16°C; space group P4(2), two copies per asymmetric unit; dimerization read from analysis of the crystal packing.

For the molecule `C[C@H](CCC(=O)O)[C@H]1CC[C@H]2[C@@H]3[C@H](O)C[C@@H]4C[C@H](O)CC[C@]4(C)[C@H]3C[C@H](O)[C@]12C` [Na C], at SULT2A8 [1] (with PAP), the Tm entry is “Tm values were further increased when both PAP and native substrates (Na C, Na T-C”.

On to `C[C@H](CCC(=O)NCCS(=O)(=O)O)[C@H]1CC[C@H]2[C@@H]3[C@H](O)C[C@@H]4C[C@H](O)CC[C@]4(C)[C@H]3CC[C@]12C` [Na T-CDC], for which, on SULT2A8 [1], the Tm result is recorded as “Na CDC, or sodium taurochenodeoxycholate) were added”.

Take `Nc1ncnc2c1ncn2[C@@H]1O[C@H](COP(=O)(O)O)[C@@H](OP(=O)(O)O)[C@H]1O` [PAP]: the Tm result at SULT2A8 [1] was “from 54 to 61 °C”; on SULT2A8 [2] it was “Tm values of these mutants were significantly increased when PAP was included”; at SULT2A8 [3], “Tm values of these mutants were significantly increased when PAP was included”; at SULT2A8 [4], “the Tm value of N72W was increased when PAP was added”; at SULT2A8 [6] it was “Tm values of these mutants were significantly increased when PAP was included”. In addition, the “X-ray crystal structure, 2.5 A” value on SULT2A8 [5] (co-crystal with cholic acid, PAPS binding pocket, cofactor product/analogue) is “SULT2A8 protein was cocrystallized with PAP and CA”.

Take `C[C@H](CCC(=O)O)[C@H]1CC[C@H]2[C@@H]3[C@H](O)C[C@@H]4C[C@H](O)CC[C@]4(C)[C@H]3C[C@H](O)[C@]12C` [CA]: the “X-ray crystal structure, 2.5 A” value at SULT2A8 [5] (co-crystal with PAP, substrate pocket) is “SULT2A8 was cocrystallized with PAP and its native substrate CA”.

`C[C@H](CCC(=O)O)[C@H]1CC[C@H]2[C@@H]3[C@H](O)C[C@@H]4C[C@H](O)CC[C@]4(C)[C@H]3CC[C@]12C` [Na CDC]: the Tm result at SULT2A8 [1] was “Na CDC, or sodium taurochenodeoxycholate) were added”.

As to `Nc1ncnc2c1ncn2[C@@H]1O[C@H](COP(=O)(O)OS(=O)(=O)O)[C@@H](OP(=O)(O)O)[C@H]1O` [PAPS], the “HPLC of PAP generated” value on SULT2A8 [7] was “quantification of PAP generated from the sulfonation of substrates”.

B1: mouse cytosolic sulfotransferase SULT2A8 (residues 4-282) (enzyme, UniProt Q8BGL3 4-282, looked up)
chain: T1 sequence (Q8BGL3 4-282)
notes: Sulfotransferase 2A8 (SULT2A8), mouse, residues 4-282 (first three N-terminal residues removed), cloned in pGEX-6P-3 from pRSET-SULT2A8; Crystallised with the small molecules PAP and cholic acid; two copies per asymmetric unit; also called mSULT2A8; SULT2A8 WT; source: E. coli BL21(DE3), purified from inclusion bodies (Glutathione Sepharose 4B, PreScission cleavage, Superdex 75); not shown: GST, …
As for B1, the binding result in data set [8] is recorded as “binds”.
